Test systems include COLO 205; MDA-MB-435; HCC 2998; SF-295; IGROV-1; K562; RXF 393; NCI-H23; SK-OV-3; Hs-578T; SK-MEL-5; EKVX; RPMI-8226; Malme-3M; KM12; MDA-MB-231; SF-539; ACHN; HCT-15.
Common to all, as to assay: NCI-60 cell line screen, 48 h

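Cells were grown in 96-well plates and exposed to each compound for 48 hours at five concentrations; endpoints were interpolated linearly between bracketing concentrations, or set to the highest concentration if not reached. GI50: concentration for 50% inhibition of growth.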 The source made the active and inactive calls. Cut-off read from the data, not from the text of the source: active = GI50 up to about 1.1 µM and inactive = higher.

With `CCOC(=O)C(NC(=O)c1ccccc1)(Nc1cc(C)on1)C(F)(F)F` (centres undefined), the GI50 in the test on COLO 205, in the test on MDA-MB-435, in the test on HCC 2998, in the test with SF-295, with IGROV-1 and with K562 was > 100 µM (inactive) each time. Moreover, the GI50 in the test with RXF 393, in the test with NCI-H23, in the test on SK-OV-3, in the test on Hs-578T, in the test with SK-MEL-5 and in the test with EKVX was > 100 µM (inactive) throughout. The GI50 with RPMI-8226 is > 100 µM (inactive); in the test on Malme-3M, > 100 µM (inactive); with KM12, > 100 µM (inactive); with MDA-MB-231, 10.9 µM (inactive); in the test on SF-539, > 100 µM (inactive); in the test on ACHN, > 100 µM (inactive). Moreover, the GI50 with HCT-15 was greater than 100 µM.

Consider `Fc1cccc(F)c1C(Nc1nncs1)Nc1nncs1`, for which the GI50 is > 100 µM (inactive) with COLO 205; 51.3 µM (inactive) in the test with MDA-MB-435; > 100 µM (inactive) in the test with HCC 2998; > 100 µM (inactive) in the test with SF-295; > 100 µM (inactive) in the test on IGROV-1; > 100 µM (inactive) with K562. Also, the GI50 in the test on RXF 393, with NCI-H23, in the test with SK-OV-3, in the test on Hs-578T, with SK-MEL-5 and with RPMI-8226 was > 100 µM (inactive) throughout. The GI50 with Malme-3M was > 100 µM (inactive); in the test with KM12, > 100 µM (inactive); in the test with MDA-MB-231 it was > 100 µM (inactive); in the test on SF-539 it was 49 µM (inactive); in the test with ACHN, > 100 µM (inactive); with HCT-15 it was 91.2 µM.

On to `Cc1[nH]c2ncn3nc(C(Cl)(Cl)Cl)nc3c2c1Cc1ccccc1`, for which the GI50 with COLO 205, in the test on MDA-MB-435, with HCC 2998, in the test with SF-295, with IGROV-1 and in the test with RXF 393 was > 100 µM (inactive) in each case. The GI50 in the test with NCI-H23, with SK-OV-3, in the test on Hs-578T, in the test with SK-MEL-5, in the test with EKVX and in the test on RPMI-8226 was > 100 µM (inactive) in each case. Further, the GI50 in the test on Malme-3M was > 100 µM (inactive); in the test with KM12, > 100 µM (inactive); with MDA-MB-231, > 100 µM (inactive); in the test on SF-539 it was > 100 µM (inactive); with ACHN, > 100 µM (inactive); in the test on HCT-15 it was greater than 100 µM.

Take `CCC1=CC2Cc3nc4cc(Cl)ccc4c(N)c3C(C1)C2` (centres undefined): the GI50 is 2.07 µM (inactive) with COLO 205; 2.94 µM (inactive) in the test on MDA-MB-435; 1.51 µM (inactive) in the test with HCC 2998; 4.45 µM (inactive) with SF-295; 2.72 µM (inactive) in the test on IGROV-1; 2.58 µM (inactive) in the test with K562. Further, the GI50 with RXF 393 is 2.65 µM (inactive); with NCI-H23, 5.52 µM (inactive); in the test with SK-OV-3 it was 12.1 µM (inactive); with Hs-578T, 5.08 µM (inactive); in the test on SK-MEL-5, 1.57 µM (inactive); in the test with EKVX, 3.18 µM (inactive). Besides, the GI50 is 2.03 µM (inactive) in the test on RPMI-8226; 4.55 µM (inactive) in the test with Malme-3M; 5.78 µM (inactive) in the test on KM12; 5.58 µM (inactive) in the test on MDA-MB-231; 9.27 µM (inactive) in the test on SF-539; 7.8 µM (inactive) in the test on ACHN. In addition, in the test with HCT-15, the GI50 is 7.21 µM.

The values above are taken from ChEMBL document CHEMBL1201862, “PubChem BioAssay data set” (2004).
